Assay results as given in PubChem BioAssay AID1996.
≈ marks a conversion by molar mass, not a printed value.

details: buffer; pH 7.4; 200.0 µM

| Compound | solubility kinetic |
| --- | --- |
| Cn1cnnc1SCC(=O)Nc1ncc([N+](=O)[O-])s1 | > 45 µg/mL |
| O=C(CC(c1ccccc1)c1ccco1)N1CCCCC1 (stereo not given) | > 42.5 µg/mL |
| O=C(c1cc(S(=O)(=O)N2CCOCC2)c(Cl)cc1Cl)N1CCN(S(=O)(=O)c2cccc(F)c2)CC1 | 20.8 µg/mL (≈ 36.7 µM) |
| FC(F)(F)c1ccnc(NCc2ccc(Cl)cc2)n1 | 4.3 µg/mL (≈ 14.9 µM) |
| COc1ccc(N=Cc2cc(Cl)ccc2O)cc1Cl | 18 µg/mL (≈ 60.8 µM) |
| O=C(NCCc1ccccc1F)c1cccc2cccnc12 | 31.4 µg/mL (≈ 107 µM) |
| Cc1ccc[n+](CC(=O)Nc2nc3ccccc3s2)c1.[Cl-] | > 48 µg/mL |
| Nc1cccnc1Sc1ccccc1 | 28 µg/mL (≈ 138 µM) |
| CC(=O)C1=C(O)C(=O)N(c2cccnc2)C1c1cccc([N+](=O)[O-])c1 (stereo not given) | > 50.9 µg/mL |
| NC(=O)CN1C(=O)C(=O)N(Cc2ccccc2Cl)C1=O | > 44.4 µg/mL |
| Cc1cc(C)nc(SCC(=O)Nc2nonc2N)n1 | > 42 µg/mL |
| CC12COC3(C(=O)Nc4ccccc4F)CC1CCC32C (stereo not given) | 9.1 µg/mL (≈ 31.4 µM) |
| CN(C)c1ccc(C(=O)OCC(=O)N2CCCC2)cc1 | > 41.5 µg/mL |
| Cn1c(NCCO)nc2c1c(=O)n(Cc1ccc(F)cc1)c(=O)n2C | 50.6 µg/mL (≈ 146 µM) |
| COc1ccc(C(CC(=O)O)N2Cc3ccccc3C2=O)cc1OC (stereo not given) | > 51.2 µg/mL |
| CN(C)CCNC(=O)c1scc2c1CCCC2.Cl | > 43.3 µg/mL |
| CSc1ccccc1NC(=O)C1=COCCO1 | > 37.7 µg/mL |
| CCCOC(=O)Nc1ccc(S(=O)(=O)Nc2ncccn2)cc1 | > 50.5 µg/mL |
| O=C(Nc1cccc(O)c1)c1cc(-c2cccs2)on1 | 1.3 µg/mL (≈ 4.54 µM) |
| COc1ccc(CNc2cccc(C)n2)c(O)c1 | 28 µg/mL (≈ 115 µM) |
| COc1ccccc1-c1noc(-c2ccccc2C(=O)NCc2ccco2)n1 | 49.4 µg/mL (≈ 132 µM) |
| Cc1ccc(N/C=C(\C#N)S(=O)(=O)c2ccccc2)cc1 | 0.7 µg/mL (≈ 2.35 µM) |
| CC(=O)c1ccc(NC(=O)CCc2ccc(C)o2)cc1 | 36.7 µg/mL (≈ 135 µM) |
| O=C(Nc1ccc(N2CCOCC2)cc1N1CCOCC1)c1ccc(F)cc1 | 42.2 µg/mL (≈ 109 µM) |

| Compound | solubility kinetic |
| --- | --- |
| CCOc1ccccc1CN1C(=O)NC2(CCCCCC2)C1=O | 46.6 µg/mL (≈ 147 µM) |
| Cc1cccc(CC(=O)N2CCCC2)c1 | 28.7 µg/mL (≈ 141 µM) |
| COc1ccc(NC(=O)COC(=O)Cn2cnc3ccccc32)cc1 | > 50.9 µg/mL |
| C=C(C)COc1ccc(C2NC(=O)c3ccccc3O2)cc1OCC (stereo not given) | 1.9 µg/mL (≈ 5.6 µM) |
| O=C1CN(C(=O)COC(=O)c2c(F)cccc2Cl)c2ccccc2N1 | 50 µg/mL (≈ 138 µM) |
| CN(C)C(=O)Oc1ccc2c(c1)O/C(=C\c1ccccc1)C2=O | 0.8 µg/mL (≈ 2.59 µM) |
| Cc1cc(-c2onc3ccc(Cl)cc23)ccc1O | 16.3 µg/mL (≈ 62.8 µM) |
| CC(=O)Nc1ccc(/C=C/c2noc(-c3ccccc3O)n2)cc1 | < 0.2 µg/mL |
| CC(=O)c1ccc(NC(=S)N2CCN(CCO)CC2)cc1 | > 46.1 µg/mL |
| NC(=NCc1ccco1)NC(=O)c1ccc(Cl)cc1 | > 41.7 µg/mL |
| CN(/C=C/c1c([N+](=O)[O-])c(=O)n(C)c(=O)n1C)c1ccccc1 | 4.9 µg/mL (≈ 15.5 µM) |
| O=Cc1ccc(OCCCOc2cccc3cccnc23)cc1 | 37.7 µg/mL (≈ 123 µM) |
| COc1ccc(OC)c([N+](=O)[O-])c1C(N)=O | > 33.9 µg/mL |
| N#Cc1ccc(NC(=S)NCCN2CCOCC2)cc1 | > 43.6 µg/mL |
| Cc1ccsc1C(=O)N1CCN(c2ccccn2)CC1 | > 43.1 µg/mL |
| COc1ccc(Cl)cc1NC(=S)NCc1cccnc1 | > 46.2 µg/mL |
| COc1ccccc1CNS(=O)(=O)c1cc(C(=O)NCC2CCCO2)c(Cl)cc1Cl (stereo not given) | > 71 µg/mL |
| CCCc1cc(=O)c2ccc(OC/C(C)=N/O)cc2o1 | 38.3 µg/mL (≈ 139 µM) |
| CCC(C)NC(=O)CN1C(=O)NC2(CCOc3ccccc32)C1=O (stereo not given) | > 49.7 µg/mL |
| CC(=O)c1cc(C#N)c(SCc2ccc([N+](=O)[O-])cc2)nc1C | < 0.2 µg/mL |
| Cc1ccsc1C(=O)OCC(=O)Nc1ccc(Cl)cn1 | 14.7 µg/mL (≈ 47.3 µM) |
| C=CCC1Cc2c(cccc2[N+](=O)[O-])C(CC=C)N1 (stereo not given) | 30.5 µg/mL (≈ 118 µM) |
| Cc1ccc(C)c(-n2c3nc(=O)n(C)c(=O)c-3cc3ccccc32)c1 | > 49.7 µg/mL |
| CC1CN(CCCCSc2ccccc2)CC(C)O1.Cl (stereo not given) | 41.8 µg/mL |

| Compound | solubility kinetic |
| --- | --- |
| COc1ccc2[nH]c(C(=O)N3CCN(Cc4ccccc4)CC3)cc2c1OC | 51.8 µg/mL (≈ 137 µM) |
| CSc1ccccc1C(=O)N1CCc2ccccc2C1 | > 42.5 µg/mL |
| CC(C)C(NC(=O)c1ccc(Cl)c([N+](=O)[O-])c1)C(=O)NCc1ccccn1 (stereo not given) | 40.6 µg/mL (≈ 104 µM) |
| NS(=O)(=O)c1ccc(CCNC(=O)CCc2ccccc2)cc1 | 46.4 µg/mL (≈ 140 µM) |
| O=C1CCCN1S(=O)(=O)c1ccc(F)cc1 | > 36.5 µg/mL |
| COc1cccc(CN2CCN(C3CCOCC3)CC2CCO)c1 (stereo not given) | 46.3 µg/mL (≈ 138 µM) |
| CCOC(=O)c1c(NC(=O)C2CC2)sc2c1CC(C)(C)OC2 | < 0.7 µg/mL |
| O=C(CCl)Nc1c[nH]c(=O)[nH]c1=O | > 30.5 µg/mL |
| CC1CCCCN1C(=S)NC(=O)c1ccco1 (stereo not given) | > 37.8 µg/mL |
| CCC(=O)N1CCN(c2ccnc3cc(Cl)ccc23)CC1 | 40.4 µg/mL (≈ 133 µM) |
| Cn1c(N)c(C(=O)Nc2c(Cl)cccc2Cl)sc1=S | 2.4 µg/mL (≈ 7.18 µM) |
| CCOC(=O)COc1c(C(=O)OC)sc2ncccc12 | 35.6 µg/mL (≈ 121 µM) |
| CC(NC(=O)C1CCC(C)(C(=O)O)C1(C)C)c1ccccc1 (stereo not given) | > 45.5 µg/mL |
| CN1C=C/C(=C\c2cc[n+](C)c3ccccc23)c2ccccc21.[I-] | 40.1 µg/mL |
| O=C(c1ccccc1)c1ccccc1N1C(=O)C=CC1=O | > 41.6 µg/mL |
| Cc1nc(CSc2ccc(Br)cc2)cs1 | 8.8 µg/mL (≈ 29.3 µM) |
| COc1ccc(S(=O)(=O)NC2CCCC2)cc1Cl | > 43.5 µg/mL |
| COc1cccc(OC)c1C(=O)NCCOc1cc(C)cc(C)c1 | 28.3 µg/mL (≈ 85.9 µM) |
| CCC(C)NC(=O)[C@@H]1CSC2c3ccccc3C(=O)N21 (stereo not given in full) | > 43.6 µg/mL |
| COc1cc2nc(NC(=O)c3ccco3)sc(=O)c2cc1OC | 1 µg/mL (≈ 3.01 µM) |
| COCCCN1C(=O)CS/C1=N\S(=O)(=O)c1ccccc1 | > 49.3 µg/mL |
| COc1cc(C)ccc1S(=O)(=O)NC1CC(C)(C)NC(C)(C)C1 | 35 µg/mL (≈ 103 µM) |
| Cc1cccc(OCC(=O)Nc2ccc3nc(C)sc3c2)c1 | 1.8 µg/mL (≈ 5.76 µM) |
| O=C(c1ccc2ncsc2c1)N1CCCCC1 | > 36.9 µg/mL |

| Compound | solubility kinetic |
| --- | --- |
| COc1cc(OC)cc(C(=O)NCCc2cnc[nH]2)c1 | > 41.3 µg/mL |
| N#Cc1ccc(-c2ccc(OCC(O)CN3CCCCC3)cc2)cc1 (stereo not given) | 42.4 µg/mL (≈ 126 µM) |
| CC(NC(=O)CN(C)Cc1cccc(Cl)c1)c1ccccc1 (stereo not given) | 38.6 µg/mL (≈ 122 µM) |
| O=C(COc1ccc2c(c1)OCO2)Nc1cccc(F)c1 | 21.5 µg/mL (≈ 74.3 µM) |
| CSc1ccc(NC(=O)NCc2ccccc2)cc1 | 1.4 µg/mL (≈ 5.14 µM) |
| COc1ccccc1C(=O)Nc1ccc(NC(=O)C2CCCCC2)nc1 | 0.9 µg/mL (≈ 2.55 µM) |
| CCOC(=O)C(C)Oc1ccc(NC(=O)C(Cl)Cl)cc1 (stereo not given) | > 48 µg/mL |
| O=C(CN1C(=O)NC2(CCCCCC2)C1=O)N1CCCCC1 | > 46.1 µg/mL |
| Cc1cc(N2CCN(C)CC2)nc2ccccc12 | 32.9 µg/mL (≈ 136 µM) |
| CCN1CCN(c2nc(-c3ccc(F)cc3)cc(=O)[nH]2)CC1 | > 45.4 µg/mL |
| CC1=CC(C)C(C(=O)O)C(C(=O)N2CCN(C)CC2)C1 (stereo not given) | > 42.1 µg/mL |
| COc1ccccc1/C=N/OCc1ccc(C#N)cc1 | 0.9 µg/mL (≈ 3.38 µM) |
| O=C1CSC(=Nc2ccc(Cl)cc2)N1Cc1cccnc1 | 8.3 µg/mL (≈ 26.1 µM) |
| CSc1ccc(/C=C2\NC(=O)NC2=O)cc1 | 9.8 µg/mL (≈ 41.8 µM) |
| CCOC(=O)c1cnc2c(ccc3ccccc32)c1NCCN(C)C | 36.3 µg/mL (≈ 108 µM) |
| COc1ccc(NC(=O)COC(=O)CCc2ccccc2)c(OC)c1 | 5.2 µg/mL (≈ 15.1 µM) |
| N#Cc1c(C(F)(F)F)cc(-c2cccs2)nc1N1CCCCC1 | < 0.2 µg/mL |
| O=C(CCCN1CC=C(n2c(=O)[nH]c3ccccc32)CC1)c1ccc(F)cc1 | 33.4 µg/mL (≈ 88 µM) |
| CC(=O)c1ccc(N2CCN(C(=O)c3cc(S(=O)(=O)N4CCOCC4)ccc3C)CC2)cc1 | > 70.7 µg/mL |
| COc1ccc(NC(=S)N2CCCC2)cc1OC | > 40 µg/mL |
| Cc1ccc(NC(=O)COc2ccc(Br)cc2CO)cc1S(=O)(=O)N1CCOCC1 | 21.1 µg/mL (≈ 42.3 µM) |
| S=C(NCc1ccncc1)Nc1ccc(Br)cc1Cl | 40.9 µg/mL (≈ 115 µM) |
| CC(NCc1ccccc1O)C12CC3CC(CC(C3)C1)C2.Cl (stereo not given) | 41.9 µg/mL |
| CCn1c(C)c(C)c2cc(C(=O)NCCc3ccco3)ccc21 | 24.4 µg/mL (≈ 78.6 µM) |

| Compound | solubility kinetic |
| --- | --- |
| O=C(CNS(=O)(=O)c1ccccc1)NCc1ccco1 | > 44.1 µg/mL |
| COC(=O)Cn1ccc(-c2ccc(Cl)cc2)c(C#N)c1=O | > 45.4 µg/mL |
| CCC(CC)C(=O)c1c[nH]c(C(=O)NCc2ccc(F)cc2)c1 | 1 µg/mL (≈ 3.16 µM) |
| CC(C)Oc1ccc(C(=O)OCC(=O)c2ccc[nH]2)cc1 | 15.1 µg/mL (≈ 52.6 µM) |
| Cc1ccc(C(=O)NCCCN2CCOCC2)c(C)c1 | > 41.5 µg/mL |
| Cc1ccc(-c2c(C)sc3nc[nH]c(=O)c23)cc1C | 39.7 µg/mL (≈ 147 µM) |
| Cc1cccc(C)c1NC(=O)CN(C)C(=O)C1CC1C (stereo not given) | > 41.2 µg/mL |
| Cc1ccc(S(=O)(=O)Nc2ccc(F)c(S(=O)(=O)N3CCOCC3)c2)cc1 | > 62.2 µg/mL |
| Cc1cc(C)c(S(=O)(=O)NC2CC(C)(C)NC(C)(C)C2)cc1C | 33.5 µg/mL (≈ 99 µM) |
| Cc1cccc(CC(C)NC(=O)CCc2nnc(-c3ccccc3)o2)n1 (stereo not given) | > 52.6 µg/mL |
| Fc1ccc(NC(=S)Nc2cccc3ccccc23)cc1F | 29.3 µg/mL (≈ 93.2 µM) |
| Cc1ccc(-n2c(-c3ccc(Cl)cc3)c[n+]3c2CCC3)cc1.[Br-] | > 58.5 µg/mL |
| COc1ccc2nc(NC(=O)c3ccco3)sc2c1 | 7.4 µg/mL (≈ 27 µM) |
| Cc1cccc(OCCCN2CCOCC2)c1C | 25.4 µg/mL (≈ 102 µM) |
| CC1CCN(CC(=O)Nc2cccc(Cl)c2)CC1 | 39.7 µg/mL (≈ 149 µM) |
| CS(=O)(=O)c1ccc(-c2csc(-c3cccnc3)n2)cc1 | 5.6 µg/mL (≈ 17.7 µM) |
| Nc1cc(=O)[nH]c(SCC(=O)Nc2cc([N+](=O)[O-])ccc2Cl)n1 | 4.4 µg/mL (≈ 12.4 µM) |
| COc1cc(OC)c(NC(C)C(=O)N2CCCC2)cc1Cl (stereo not given) | 45.1 µg/mL (≈ 144 µM) |
| Cc1cc(C)cc(N(CC(=O)N2CCCCCC2)S(C)(=O)=O)c1 | 48.5 µg/mL (≈ 143 µM) |
| CCOc1cc(S(=O)(=O)Nc2ccncc2)ccc1F | > 44.4 µg/mL |
| CC1CCCN(Cc2ccc(OCc3ccccc3)cc2)C1 (stereo not given) | 31.5 µg/mL (≈ 107 µM) |
| CC(Sc1ccccc1)C(=O)N(CCC#N)Cc1cccnc1 (stereo not given) | > 48.8 µg/mL |
| CC(Nc1nc(N2CCOCC2)nc2ccccc12)c1ccccc1 (stereo not given) | 6.8 µg/mL (≈ 20.3 µM) |
| O=C(Nc1cccc2ncccc12)c1ccc(OCc2ccccc2)cc1 | < 0.4 µg/mL |
